Laboratory results reported in patent US20250154173A1 (Merck Sharp & Dohme LLC, priority 2023, published 2025).

Target: T1, GST-RIPK1 (recombinant GST-RIPK1 kinase domain (residues 1-327)) (Homo sapiens, UniProt Q13546)
T1 construct: recombinant GST-RIPK1 kinase domain (residues 1-327) enzyme produced from baculovirus-transfected Sf21 cells; host or cells: baculovirus-transfected Sf21 insect cells
T1 sequence (Q13546 1-327): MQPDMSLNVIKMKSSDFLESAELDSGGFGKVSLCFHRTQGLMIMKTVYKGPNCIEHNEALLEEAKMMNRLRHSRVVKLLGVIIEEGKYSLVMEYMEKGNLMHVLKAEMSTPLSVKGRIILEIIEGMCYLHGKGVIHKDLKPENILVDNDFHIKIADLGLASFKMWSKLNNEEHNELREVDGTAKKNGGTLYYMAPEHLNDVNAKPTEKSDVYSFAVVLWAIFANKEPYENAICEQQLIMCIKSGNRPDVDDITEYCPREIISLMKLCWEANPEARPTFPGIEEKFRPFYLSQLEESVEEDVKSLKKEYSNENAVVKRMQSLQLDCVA
Assay: RIPK1-ADP-Glo Enzymatic Assay
Format: biochemical
Conditions: ten-point titration, top compound concentration of 100000 nM; 25 nM GST-RIPK1, 300 μM ATP, 3 μM dephosphorylated-MBP; 30 min pre-incubation, 150 min reaction
How it was run: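 GST-RIPK1 kinase domain (residues 1-327, Sf21-expressed), 25 nM, preincubated 30 min with compound, then reacted 150 min with 300 μM ATP and 3 μM dephosphorylated MBP in pH 7.3 Hepes buffer, 1% DMSO. ADP measured by ADP-Glo luminescence; EC50 from ten-point titration (top 100000 nM), four-parameter fit.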

| Compound | EC50 |
| --- | --- |
| O=C1N2C(CC[C@H]2c2cnccn2)OC12CC(OCc1ccc(-c3ccon3)cc1)C2 (stereo partly drawn) [Example 18.30, (5′S)-3-{[4-(1,2-oxazol-3-yl)phenyl]methoxy}-5′-(pyrazin-2-yl)tetrahydro-3′H-spiro[cyclobutane-1,2′-pyrrolo[2,1-b][1,3]oxazol]-3′-one] | 45 nM |
| O=C1N2[C@@H](CC[C@H]2c2ccccc2)OC12CC(Oc1cccc(C(F)(F)F)c1)C2 (stereo partly drawn) [Example 8.15, (5′S,7a′R)-5′-phenyl-3-[3-(trifluoromethyl)phenoxy]tetrahydro-3′H-spiro[cyclobutane-1,2′-pyrrolo[2,1-b][1,3]oxazol]-3′-one] | 37 nM |
| O=C1N2C(CC[C@H]2c2cnccn2)OC12CC(OCc1nnc(Cc3ccccc3)s1)C2 (stereo partly drawn) [Example 18.64, (5′S)-3-[(5-benzyl-1,3,4-thiadiazol-2-yl)methoxy]-5′-(pyrazin-2-yl)tetrahydro-3′H-spiro[cyclobutane-1,2′-pyrrolo[2,1-b][1,3]oxazol]-3′-one] | 122 nM |
| O=C1N2C(CC[C@H]2c2cnccn2)OC12CC(OCc1cccc3cncc(F)c13)C2 (stereo partly drawn) [Example 18.72, (5′S)-3-[(4-fluoroisoquinolin-5-yl)methoxy]-5′-(pyrazin-2-yl)tetrahydro-3′H-spiro[cyclobutane-1,2′-pyrrolo[2,1-b][1,3]oxazol]-3′-one] | 83 nM |
| O=C1N2[C@H](CC[C@H]2c2cnccn2)O[C@]12C[C@@H](Oc1ncnn3cccc13)C2 [Example 9.51, (1s,3R,5′R,7a′S)-5′-(pyrazin-2-yl)-3-(pyrrolo[2,1-f][1,2,4]triazin-4-yloxy)tetrahydro-3′H-spiro[cyclobutane-1,2′-pyrrolo[2,1-b]oxazol]-3′-one] | 56 nM |
| O=C1N2C(CC[C@H]2c2cnccn2)OC12CC(OCc1cccc3cncc(F)c13)C2 (stereo partly drawn) [Example 18.21, (5′S)-3-[(4-fluoroisoquinolin-5-yl)methoxy]-5′-(pyrazin-2-yl)tetrahydro-3′H-spiro[cyclobutane-1,2′-pyrrolo[2,1-b][1,3]oxazol]-3′-one] | 32 nM |
| O=C1N2[C@@H](CC[C@H]2c2ccccc2)OC12CC(Oc1nncc3cccn13)C2 (stereo partly drawn) [Example 8.23, (5′S,7a′R)-5′-phenyl-3-[(pyrrolo[1,2-d][1,2,4]triazin-4-yl)oxy]tetrahydro-3′H-spiro[cyclobutane-1,2′-pyrrolo[2,1-b][1,3]oxazol]-3′-one] | 29 nM |
| Cn1nccc1-c1cccc(OC2CC3(C2)O[C@@H]2CC[C@@H](c4cnccn4)N2C3=O)c1 (stereo partly drawn) [Example 19.14, (5′S,7a′R)-3-[3-(1-methyl-1H-pyrazol-5-yl)phenoxy]-5′-(pyrazin-2-yl)tetrahydro-3′H-spiro[cyclobutane-1,2′-pyrrolo[2,1-b][1,3]oxazol]-3′-one] | 16 nM |
| O=C1N2[C@@H](CC[C@H]2c2cnccn2)OC12CC(OCC1CCCC1)C2 (single isomer, unassigned) [Example 23.4, (5′S,7a′R)-3-(cyclopentylmethoxy)-5′-(pyrazin-2-yl)tetrahydro-3′H-spiro[cyclobutane-1,2′-pyrrolo[2,1-b]oxazol]-3′-one] | 649 nM |
| O=C1N2[C@@H](CC[C@H]2c2ccccc2)OC12CC(Oc1nccc3nccn13)C2 (stereo partly drawn) [Example 8.20, (5′S,7a′R)-3-[(imidazo[1,2-c]pyrimidin-5-yl)oxy]-5′-phenyltetrahydro-3′H-spiro[cyclobutane-1,2′-pyrrolo[2,1-b][1,3]oxazol]-3′-one] | 20 nM |
| O=C1N2C(CC[C@H]2c2cnccn2)OC12CC(OCc1csc3ncccc13)C2 (stereo partly drawn) [Example 18.18, (5′S)-5′-(pyrazin-2-yl)-3-[(thieno[2,3-b]pyridin-3-yl)methoxy]tetrahydro-3′H-spiro[cyclobutane-1,2′-pyrrolo[2,1-b][1,3]oxazol]-3′-one] | 18 nM |
| N#Cc1ccc(COC2CC3(C2)O[C@@H]2CC[C@@H](c4cnccn4)N2C3=O)cc1 (single isomer, unassigned) [Example 22.7, 4-({[(5′S,7a′R)-3′-oxo-5′-(pyrazin-2-yl)tetrahydro-3′H-spiro[cyclobutane-1,2′-pyrrolo[2,1-b][1,3]oxazol]-3-yl]oxy}methyl)benzonitrile] | 29 nM |
| O=C1N2C(CC[C@H]2c2cnccn2)OC12CC(OCc1cnc(N3CCOCC3)nc1)C2 (stereo partly drawn) [Example 18.24, (5′S)-3-{[2-(morpholin-4-yl)pyrimidin-5-yl]methoxy}-5′-(pyrazin-2-yl)tetrahydro-3′H-spiro[cyclobutane-1,2′-pyrrolo[2,1-b][1,3]oxazol]-3′-one] | 310 nM |
| O=C1N2C(CC[C@H]2c2cnccn2)OC12CC(OCc1ccc(OCCF)nn1)C2 (stereo partly drawn) [Example 18.44, (5′S)-3-{[6-(2-fluoroethoxy)pyridazin-3-yl]methoxy}-5′-(pyrazin-2-yl)tetrahydro-3′H-spiro[cyclobutane-1,2′-pyrrolo[2,1-b][1,3]oxazol]-3′-one] | 241 nM |
| O=C1N2C(CC[C@H]2c2cnccn2)OC12CC(OCc1ccc(N3CCOCC3)nc1)C2 (stereo partly drawn) [Example 18.35, (5′S)-3-{[6-(morpholin-4-yl)pyridin-3-yl]methoxy}-5′-(pyrazin-2-yl)tetrahydro-3′H-spiro[cyclobutane-1,2′-pyrrolo[2,1-b][1,3]oxazol]-3′-one] | 14 nM |
| O=C1N2[C@@H](CC[C@H]2c2cncc(F)c2)OC12CCC(Oc1ccccc1)CC2 (single isomer, unassigned) [Example 16.4, (1s or r), (5′S,7a′R)-5′-(5-fluoropyridin-3-yl)-4-phenoxytetrahydro-3′H-spiro[cyclohexane-1,2′-pyrrolo[2,1-b]oxazol]-3′-one] | 476 nM |
| N#Cc1ccc(OC2CCC2)cc1COC1CC2(C1)OC1CC[C@@H](c3cnccn3)N1C2=O (stereo partly drawn) [Example 18.40, 4-(cyclobutyloxy)-2-({[(5′S)-3′-oxo-5′-(pyrazin-2-yl)tetrahydro-3′H-spiro[cyclobutane-1,2′-pyrrolo[2,1-b][1,3]oxazol]-3-yl]oxy}methyl)benzonitrile] | 119 nM |
| N#CCCc1ccc(COC2CC3(C2)OC2CC[C@@H](c4cnccn4)N2C3=O)cc1 (stereo partly drawn) [Example 18.95, 3-[4-({[(5′S)-3′-oxo-5′-(pyrazin-2-yl)tetrahydro-3′H-spiro[cyclobutane-1,2′-pyrrolo[2,1-b][1,3]oxazol]-3-yl]oxy}methyl)phenyl]propanenitrile] | 130 nM |
| COCCOc1ccc(COC2CC3(C2)OC2CC[C@@H](c4cnccn4)N2C3=O)cc1 (stereo partly drawn) [Example 18.50, (5′S)-3-{[4-(2-methoxyethoxy)phenyl]methoxy}-5′-(pyrazin-2-yl)tetrahydro-3′H-spiro[cyclobutane-1,2′-pyrrolo[2,1-b][1,3]oxazol]-3′-one] | 65 nM |
| Cn1nccc1-c1cc(OC2CC3(C2)O[C@@H]2CC[C@@H](c4cnccn4)N2C3=O)ncn1 (stereo partly drawn) [Example 19.20, (5′S,7a′R)-3-{[6-(1-methyl-1H-pyrazol-5-yl)pyrimidin-4-yl]oxy}-5′-(pyrazin-2-yl)tetrahydro-3′H-spiro[cyclobutane-1,2′-pyrrolo[2,1-b][1,3]oxazol]-3′-one] | 13 nM |
| CS(=O)(=O)c1ccc(COC2CC3(C2)OC2CC[C@@H](c4cnccn4)N2C3=O)cc1 (stereo partly drawn) [Example 18.17, (5′S)-3-{[4-(methylsulfonyl)phenyl]methoxy}-5′-(pyrazin-2-yl)tetrahydro-3′H-spiro[cyclobutane-1,2′-pyrrolo[2,1-b][1,3]oxazol]-3′-one] | 145 nM |
| O=C1N2[C@@H](CC[C@H]2c2cnccn2)OC12CC(OCc1ccc3scnc3c1)C2 (stereo partly drawn) [Example 20.7, (5′S,7a′R)-3-[(1,3-benzothiazol-5-yl)methoxy]-5′-(pyrazin-2-yl)tetrahydro-3′H-spiro[cyclobutane-1,2′-pyrrolo[2,1-b][1,3]oxazol]-3′-one] | 86 nM |
| N#Cc1cc(O[C@H]2C[C@@]3(C2)O[C@@H]2CC[C@@H](c4cnccn4)N2C3=O)ncn1 [Example 9.42, 6-(((5′S,7a′R)-3′-oxo-5′-(pyrazin-2-yl)tetrahydro-3′H-spiro[cyclobutane-1,2′-pyrrolo[2,1-b]oxazol]-3-yl)oxy)pyrimidine-4-carbonitrile] | 21 nM |
| COc1cc(OC2CC3(C2)O[C@@H]2CC[C@@H](c4ccccc4)N2C3=O)ccc1F (stereo partly drawn) [Example 8.18, (5′S,7a′R)-3-(4-fluoro-3-methoxyphenoxy)-5′-phenyltetrahydro-3′H-spiro[cyclobutane-1,2′-pyrrolo[2,1-b][1,3]oxazol]-3′-one] | 21 nM |
| O=C1N2C(CC[C@H]2c2cnccn2)OC12CC(OCc1cnn(C3CC3)c1)C2 (stereo partly drawn) [Example 18.3, (5′S)-3-[(1-cyclopropyl-1H-pyrazol-4-yl)methoxy]-5′-(pyrazin-2-yl)tetrahydro-3′H-spiro[cyclobutane-1,2′-pyrrolo [2,1-b][1,3]oxazol]-3′-one] | 969 nM |
| O=C1N2[C@@H](CC[C@H]2c2ccccc2)OC12CC(Oc1cncc(C(F)(F)F)c1)C2 (stereo partly drawn) [Example 8.8, (5′S,7a′R)-5′-phenyl-3-{[5-(trifluoromethyl)pyridin-3-yl]oxy}tetrahydro-3′H-spiro[cyclobutane-1,2′-pyrrolo[2,1-b][1,3]oxazol]-3′-one] | 155 nM |
